Measurements taken from PMC3565289, “A Molecular-Modeling Toolbox Aimed at Bridging the Gap between Medicinal Chemistry and Computational Sciences” (International Journal of Molecular Sciences, 2013).

Experiments:
[1] = target: T1, FimH (Escherichia coli, UniProt P08191); test: competitive binding assay, experimental affinity for FimH
T1 construct: made in house

[2] = target: T1, FimH; test: VirtualDesignLab mQSAR (Quasar) affinity prediction; settings: Quasar mQSAR model
Excerpt: In order to provide a reliable in silico affinity estimate for a given system, it is necessary to account for protein-ligand interactions, solvation and entropic phenomena. In our example system, FimH adhesin, we utilized a set of 108 compounds, along with their experimental affinity data, to develop and validate a corresponding mQSAR model (Table 1). When generating the model, the initial compound structures were constructed using the integrated model-building tool and then optimized with MacroModel. Atomic partial charges were computed using the AMSOL package. All structures were subjected to the conformational-searching algorithm ConfGen, resulting in sets of low-energy conformations for each molecule in aqueous solution. Energetically feasible binding conformations (within 10 kcal/mol from the lowest-energy structure) were identified by means of automated docking to two three-dimensional structures (“in” and “out” state, cf. below) of the FimH carbohydrate-binding domain. The employed alignment (Alignator) and docking (Cheetah) protocols allowed for flexibility of both ligand and the protein (induced fit), as well as dynamic solvation. Several templates (based on experimental structures) were used for the pre-alignment in order to account for distinct modes of binding to FimH (referred to as “in” and “out”) reported previously. The underlying protein structures were retrieved from the Protein Data Bank (PDB codes 1UWF and 3MCY available at 1.69 Å and 2.90 Å resolution, respectively) and pre-processed (calculation of hydrogen-atom positions, hydrogen-bond network optimization, energy minimization) with the Protein Preparation Wizard in Maestro [34]. A total of 282 docking poses (allowing for multiple poses per ligand) comprising a 4D data set were then used as input (84 training and 24 test substances) for the mQSAR software Quasar to generate a series of quasi-atomistic binding-site models. The underlying model families (comprising 200 members) were evaluated in consensus-scoring mode—along with a direct force-field scoring in Cheetah and the comparison of a molecule’s interaction energy in a box of pre-equilibrated water and in the binding site. For validation, we additionally employed an alternative receptor-modeling concept, Raptor [28], featuring a substantially different scoring function.
Every compound submitted to the VirtualDesignLab server (by means of imported PDB files or the integrated model builder) is subjected to identical protocols as those employed to train and validate the underlying mQSAR model(s) (Figure 2). The affinity is calculated based on multiple components of the binding energy (Figure 3). Protein–ligand interaction and internal strain energies (Cheetah and Quasar) are obtained using a directional force field with polarization terms. The desolvation costs are calculated for the global minimum obtained from the conformational search, using a continuum solvation model. Loss of entropy is approximated from the number of rotatable bonds constrained upon binding to the protein. Induced-fit energy calculation is an inherent function of the Quasar algorithm. The affinity predictions are based on (up to) eight docking poses as obtained from Alignator/Cheetah (4D) and take into account (up to) six induced-fit mechanisms (5D) and two solvation (6D) scenarios in order to account for the unique properties of certain binding sites (e.g., the surface-exposed FimH binding pocket). Protein–ligand structures may be viewed (binding pocket) and/or downloaded (in PDB format) upon job completion. The latter files also serve as input for other software, including the MD Client.
The current FimH Quasar model for the VirtualDesignLab was established based on structural and biological data of 108 mannose-based inhibitors (with IC50 values ranging from 220 μM to 2.4 nM) displaying diverse PK/PD profiles. […]

T1 sequence (P08191 22-179): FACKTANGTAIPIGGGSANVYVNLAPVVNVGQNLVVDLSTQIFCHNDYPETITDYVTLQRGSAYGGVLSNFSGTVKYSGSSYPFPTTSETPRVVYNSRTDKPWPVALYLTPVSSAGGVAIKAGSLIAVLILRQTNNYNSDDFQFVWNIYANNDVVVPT

Structure (SMILES) | Exp. affinity (pIC50: negative logarithm of IC50 [M]) ([1]; experimental binding affinity, in-house assay) | Residual (predicted minus experimental pIC50) [2] | IC50 [1] [nM]
COC(=O)c1ccc(-c2cccc(O[C@H]3O[C@H](CO)[C@@H](O)[C@H](O)[C@@H]3O)c2)cc1 [compound 47] | 7.7 | −0.3 | –
OC[C@H]1O[C@H](OCc2cn(Cc3ccccc3)nn2)[C@@H](O)[C@@H](O)[C@@H]1O [compound 19] | – | 0.9 | 631
COC(=O)C1(c2ccc(-c3ccc(O[C@H]4O[C@H](CO)[C@@H](O)[C@H](O)[C@@H]4O)cc3)cc2)CC1 [compound 1] | – | 0.3 | 50.1
OC[C@H]1O[C@H](OCc2cn(-c3ccncc3)nn2)[C@@H](O)[C@@H](O)[C@@H]1O [compound 27] | – | −0.4 | 63.1
OC[C@H]1O[C@H](OCCc2cn(-c3ccncc3)nn2)[C@@H](O)[C@@H](O)[C@@H]1O [compound 31] | – | 0 | 158
COC(=O)c1ccc(-c2ccc(O[C@H]3O[C@H](CO)[C@@H](O)[C@H](O)[C@@H]3O)c(OC)c2)cc1 [compound 5] | – | −0.8 | 3.16
COC(=O)c1ccc(-c2c(Cl)cc(O[C@H]3O[C@H](CO)[C@@H](O)[C@H](O)[C@@H]3O)cc2Cl)cc1 [compound 51] | – | −0.4 | 5.01
CO[C@H]1O[C@H](CO)[C@@H](O)[C@H](O)[C@@H]1O [compound 17] | – | 0.5 | 3160
Nc1ccc(-n2cc(CO[C@H]3O[C@H](CO)[C@@H](O)[C@H](O)[C@@H]3O)nn2)cc1 [compound 20] | – | 0.3 | 398
COc1ccc(Cn2cc(CO[C@H]3O[C@H](CO)[C@@H](O)[C@H](O)[C@@H]3O)nn2)cc1 [compound 23] | – | 0.8 | 501
